{"source": "patent US8951752B2", "about": "“N-demethyase genes and uses thereof” (priority 2011, dated 2015)", "key": {"[1]": {"test_system": "cell extracts prepared from P. putida CBB5", "experiment": "NADH-dependent N-demethylase activity of CBB5 cell extracts", "assay_type": "biochemical, Pseudomonas putida CBB5", "settings": "0.5 mM substrate, 7.2 mg mL^−1 protein"}, "[2]": {"biological_target": "T1, N-demethylase (Ndm: NdmA and NdmB subunits) (Pseudomonas putida, UniProt H9N289+H9N290)", "T1 construct": "lane 3, natural Ndm purified from P. putida CBB5; made in house; host or cells: purified from the natural strain Pseudomonas putida CBB5 (DEAE, Phenyl and Q Sepharose); not recombinant", "T1 sequence (H9N289 1-351)": "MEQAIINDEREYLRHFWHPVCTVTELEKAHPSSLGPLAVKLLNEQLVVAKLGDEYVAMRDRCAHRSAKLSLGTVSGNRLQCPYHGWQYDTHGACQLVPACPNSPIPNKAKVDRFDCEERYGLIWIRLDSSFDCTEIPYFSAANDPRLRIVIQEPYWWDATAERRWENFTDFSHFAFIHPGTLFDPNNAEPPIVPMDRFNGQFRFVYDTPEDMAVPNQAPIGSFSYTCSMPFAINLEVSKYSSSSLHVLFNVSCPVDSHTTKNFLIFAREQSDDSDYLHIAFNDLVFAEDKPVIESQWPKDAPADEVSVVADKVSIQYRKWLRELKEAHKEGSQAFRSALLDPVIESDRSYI", "T1 sequence (H9N290 1-355)": "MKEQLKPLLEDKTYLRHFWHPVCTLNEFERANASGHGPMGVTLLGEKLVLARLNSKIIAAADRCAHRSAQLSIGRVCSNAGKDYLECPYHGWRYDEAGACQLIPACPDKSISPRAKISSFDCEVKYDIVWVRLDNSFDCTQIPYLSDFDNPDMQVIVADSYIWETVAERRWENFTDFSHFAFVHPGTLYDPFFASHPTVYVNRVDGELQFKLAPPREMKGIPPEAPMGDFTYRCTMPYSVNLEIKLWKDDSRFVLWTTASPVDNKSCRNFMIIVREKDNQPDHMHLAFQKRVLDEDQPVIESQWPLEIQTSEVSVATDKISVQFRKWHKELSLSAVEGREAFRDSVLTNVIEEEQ", "experiment": "Methylxanthine N-demethylase activity assay with purified Ndm plus partially purified Ccr", "assay_type": "biochemical, Pseudomonas putida CBB5", "settings": "for Relative N-demethylase activity: relative to paraxanthine", "method": "Methylxanthine N-demethylase activity assay contained, in 1-mL total volume, 0.5 mM methylxanthine, 1 mM NADH, 50 μM Fe(NH4)2(SO4)2, and an appropriate amount of Ndm (0.08-7.5 mg protein, depending on purity of the protein) in 50 mM KPi buffer. Approximately 4 U of partially purified Ccr was added to reaction mixture when assaying Ndm in Phenyl Sepharose and Q Sepharose eluant-fractions (Ccr was not added to the enzyme reaction mixture when assaying Ndm activity in DEAE Sepharose eluant-fractions because Ccr co-eluted with Ndm). The reaction mixture was incubated at 30° C. with 300 rpm shaking on an incubating microplate shaker (VWR). Periodically, a small aliquot was sampled from the reaction mixture and mixed with equal volume of acetonitrile for quantifying concentrations of methylxanthines and N-demethylated products by HPLC. One unit of N-demethylase activity was defined as the consumption of one μmole methylxanthine per minute. When Ndm was coupled with the reductase and ferredoxin components of naphthalene dioxygenase of Pseudomonas sp. strain 9816 (Haigler & Gibson, 1990a; Haigler & Gibson, 1990b), 30 and 100 μg of the respective proteins were used. Spinach ferredoxin reductase and ferredoxin were also substituted for Ccr as described by Subramanian et al. (1979).\nDetermination of Kinetic Parameters. Apparent kinetic parameters of Ndm were determined by measuring the initial rate of disappearance (vo) of paraxanthine or 7-methylxanthine in 50 mM KPi buffer (pH 7.5) at 30° C. The paraxanthine and 7-methylxanthine concentrations ([S]) used in these experiments were from 20 to 500 μM. Substrates were incubated with Ndm and Ccr under standard conditions for 15 minutes. At 1, 5, 10, and 15 minutes, samples were removed from the reaction mixtures to quantitate substrate concentrations by HPLC. Plots of substrate concentrations against time were used to determine the initial rates of disappearance of substrates which were linear over 15 minutes. The apparent kinetic parameters were determined from Michaelis-Menten plots of Vo against [S] fitted with the equation\nDetermination of Oxygen Requirement. Oxygen consumption by Ndm during N-demethylation of paraxanthine was determined in a closed reaction vessel equipped with a Clarke-type oxygen electrode (Digitial Modell 0, Rank Brothers Ltd., Cambridge, England). The electrode was calibrated by using glucose oxidase (Sigma) and glucose for consumption of oxygen. Ndm activity assay was performed at 30° C. in a total volume of 1 ml of air-saturated 50 mM KPi buffer (pH 7.5) with 100 μM paraxanthine, 200 μM NADH, 50 μM Fe(NH4)2(SO4)2, 0.2 mg purified Ndm, and 4 U partially purified Ccr. The reaction was initiated by adding Ndm and partially purified Ccr after equilibration of all other reaction components for 3.3 minutes. After 13 minutes, a 100-μL aliquot was withdrawn from the reaction, immediately mixed with equal volume of acetonitrile to stop the enzyme reaction, and analyzed for N-demethylation product by HPLC. Background oxygen consumption, possibly due to NADH oxidase enzyme activity in the partially purified Ccr, was quantitated in control reactions containing all reaction components except paraxanthine.\nFormaldehyde Determination. […] Twenty μL Nash reagent was added to 50 μl Ndm reaction sample plus 50 μl acetonitrile. This mixture was incubated at 51° C. for 12 minutes."}}, "data": [{"smiles": "Cn1cnc2c1c(=O)[nH]c(=O)n2C", "note": "[Theobromine, 3,7-dimethylxanthine]", "values": [{"measurement": "degradation rate compared with paraxanthine", "setting": "[1]", "value": "significantly slower"}, {"measurement": "Products identified", "setting": "[2]; same products at 500 and 200 μM substrate", "value": "3- & 7-methylxanthine, and xanthine"}, {"measurement": "Relative N-demethylase activity", "setting": "[2]; substrate conc. 200 μM", "value": "80.2 ± 7.8"}, {"measurement": "Relative N-demethylase activity", "setting": "[2]; substrate conc. 500 μM", "value": "59.8 ± 1.9"}]}]}
